Reference: patent US8735391B2, “Synthesis of functionalized octahydro-isoquinolin-1-one-8-carboxamides, octahydro-isoquinolin-1-one-8-carboxylic esters and analogs, and therapeutic methods” (University of Kansas, priority 2008, dated 2014)
Like-named read-outs stand apart in the source and are kept apart here.

Key:
KOR [1] = molecular target: T1, KOR (Homo sapiens, UniProt P41145); experiment: [35S]GTPγS binding functional agonist assay on membranes of CHO cells expressing hKOR (reference agonist U69593); format: biochemical; parameters: expressed in transfected cells; host or cells: CHO cells, stably transfected; crude membrane fractions; conditions: for Emax: read-out: Emax values relative to U69593; for KOR agonist (average percent efficacy relative to cognate agonist): test compound at 10 micromolar, N=4, reference agonist = 100%, CHO-cell line expressing hKOR
Method: The compounds prepared herein were tested for bioactivity with opioid receptors. Agonist assays: Data represent the percent efficacy (relative to cognate agonist) of the test compound at 10 micromolar. The response to a saturating concentration of a reference antagonist or to vehicle (usually none or negligible) is set to 0%. […] The response inhibition elicited by a saturating concentration of reference antagonist is set to 100%; the response inhibition (usually none or negligible) elicited by vehicle is set to 0%. The following tables provide data related to the bioactivity for opioid receptors of the compounds described herein.
Table 6 provides data that represent the average percent efficacy (N=4; relative to cognate agonist) of the test compound at 10 micromolar concentration. The response to a saturating concentration of cognate/reference agonist is set to 100%; the response to a saturating concentration of a reference antagonist or to vehicle (usually none or negligible) is set to 0%. All functional assays are performed on stably transfected CHO-cell lines expressing hKOR, hMOR or hDOR.
(§1) Serial dilutions of the test and reference compounds are made in binding buffer at 2× assay concentration (final assay concentrations ranging from 0.1 nM to 10 μM). Crude membrane fractions (1.8 to 3.5 cm2/well) (prepared from 10-cm plates by harvesting PBS-rinsed monolayers, resuspending and lysing in chilled, hypotonic 50 mM Tris-HCl, pH 7.4, centrifuging at 20,000×g, decanting the supernatant and storing at −80 degrees centigrade; typically, one 10-cm plate provides sufficient material for 24 wells) are resuspended in 1.2 ml of assay buffer containing 20 μM GDP, wheat germ agglutinin (WGA)-coated scintillation proximity beads (2.4 mg), and [35S]GTPγS (300 pM final). The suspension is then added (50 μl/well) to 50 μl of the 2× test or reference compounds (each concentration assayed in triplicate) in flexible transparent PET 96-well plates. The reaction plate is sealed and incubated for 90 min at room temperature, then centrifuged for 5 min at 216×g, and finally loaded into a Wallac MicroBeta TriLux counter. Non-specific [35S]GTPγS binding is assessed at the maximum concentration of reference agonist in the presence of 10 μM antagonist. The background signal is measured at 10 μM reference agonist in the presence of 10 μM unlabeled GTPγS. Raw data (dpm) representing total [35S]GTPγS binding (i.e., specific+non-specific binding) are calculated as a percentage of the maximum response by the reference agonist (in this case U69593).
as §1, with “GTPγS.” for “GTPγS. Raw data (dpm) representing total [35S]GTPγS binding (i.e., specific+non-specific binding) are calculated as a percentage of the maximum response by the reference agonist (in this case U69593).”

MOR = MOR (Homo sapiens, UniProt P35372); experiment: Opioid secondary binding, MOR (Tables 4, 5, 8)
KOR [2] = molecular target: T1, KOR; experiment: Opioid secondary binding, KOR (Tables 4, 5, 8, 9)
DOR = DOR (Homo sapiens, UniProt P41143); experiment: Opioid secondary binding, DOR (Table 4); conditions: Opioid secondary binding activity for Formula 10 analogs
[3] = Opioid secondary binding activity for Formula 10 analogs, read-out: MOR, Ki
[4] = Opioid secondary binding activity for Formula 10 analogs, read-out: KOR, Ki

MOR, sequence (P35372 whole entry): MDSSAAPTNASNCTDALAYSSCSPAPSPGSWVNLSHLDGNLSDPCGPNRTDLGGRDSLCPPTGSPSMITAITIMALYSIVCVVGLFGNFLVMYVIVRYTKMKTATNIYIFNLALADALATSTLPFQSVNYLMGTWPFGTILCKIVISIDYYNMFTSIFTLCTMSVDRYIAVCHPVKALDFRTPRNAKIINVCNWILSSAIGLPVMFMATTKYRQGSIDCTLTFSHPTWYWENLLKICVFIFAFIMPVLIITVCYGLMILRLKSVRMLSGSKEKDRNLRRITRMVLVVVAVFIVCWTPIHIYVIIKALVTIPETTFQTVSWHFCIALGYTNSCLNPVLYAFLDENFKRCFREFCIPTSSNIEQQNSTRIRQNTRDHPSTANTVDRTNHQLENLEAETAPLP
DOR, sequence (P41143 whole entry): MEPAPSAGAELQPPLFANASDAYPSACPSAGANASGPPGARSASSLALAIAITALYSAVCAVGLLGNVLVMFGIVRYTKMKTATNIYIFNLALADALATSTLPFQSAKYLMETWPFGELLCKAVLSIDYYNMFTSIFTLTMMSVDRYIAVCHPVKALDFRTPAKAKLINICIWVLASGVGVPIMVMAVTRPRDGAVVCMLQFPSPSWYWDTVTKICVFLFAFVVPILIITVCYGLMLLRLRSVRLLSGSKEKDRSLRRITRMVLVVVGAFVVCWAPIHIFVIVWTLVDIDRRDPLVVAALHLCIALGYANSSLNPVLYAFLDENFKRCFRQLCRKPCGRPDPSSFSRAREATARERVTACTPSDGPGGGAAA
T1 sequence (P41145 whole entry): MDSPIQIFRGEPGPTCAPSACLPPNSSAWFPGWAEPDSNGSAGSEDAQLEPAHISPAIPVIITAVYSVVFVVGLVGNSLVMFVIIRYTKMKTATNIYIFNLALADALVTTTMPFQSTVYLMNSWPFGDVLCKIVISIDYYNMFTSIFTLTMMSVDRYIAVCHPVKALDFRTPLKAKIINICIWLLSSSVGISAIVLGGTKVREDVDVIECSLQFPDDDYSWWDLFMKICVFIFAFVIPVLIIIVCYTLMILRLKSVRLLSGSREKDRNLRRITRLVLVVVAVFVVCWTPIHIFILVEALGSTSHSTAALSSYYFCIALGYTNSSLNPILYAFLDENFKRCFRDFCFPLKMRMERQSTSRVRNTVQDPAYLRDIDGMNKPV

| Compound | Emax (KOR [1]) [%] | Ki (MOR; [3]) [nM] | Ki (KOR [2]) [nM] | KOR agonist (average percent efficacy relative to cognate agonist) (KOR [1]) [%] | Ki (DOR) [nM] | Ki (KOR [2]; [4]) [nM] | Emax values relative to U69593 (KOR [1]; [35S]GTPγS data-fit top relative to reference agonist U69593) [%] | Ki (MOR) [nM] |
| --- | --- | --- | --- | --- | --- | --- | --- | --- |
| O=C(Nc1ccc(Cl)c(C(F)(F)F)c1)[C@@H]1CC=C[C@@H]2CCN(Cc3ccccc3)C(=O)[C@@H]21 (racemic) [compound 8620] | 67 | 3550 | 5.3 |  |  |  |  |  |
| O=C1[C@H]2[C@H](C=CC[C@H]2C(=O)N2CCN(c3ccccc3)CC2)CCN1Cc1ccccc1 (racemic) [compound 8912] |  | 2400 |  | 8 | 3850 | 4800 |  |  |
| COc1ccc(CN2CC[C@H]3C=CC[C@@H](C(=O)N4CCN(c5ccccc5)CC4)[C@H]3C2=O)cc1OC (racemic) [compound 8915] |  | 5540 |  | 6.7 | 4690 | 8900 |  |  |
| O=C(NCCc1ccccc1)[C@@H]1CC=C[C@@H]2CCN(Cc3ccccc3)C(=O)[C@@H]21 (racemic) [compound 8916] |  | 4600 |  | 110.6 |  | 561 |  |  |
| COc1ccc(CNC(=O)[C@@H]2CC=C[C@@H]3CCN(Cc4ccc(Cl)c(Cl)c4)C(=O)[C@@H]32)cc1 (racemic) [compound 8928] |  | 7400 |  | 17.7 |  | 964 |  |  |
| O=C(Nc1ccccc1)[C@@H]1CC=C[C@@H]2CCN(Cc3ccccc3)C(=O)[C@@H]21 (racemic) [compound 8937, 2-Benzyl-N-phenyl-1-oxo-1,2,3,4,4a,7,8,8a-octahydroisoquinoline-8-carboxamide] |  | 2570 |  | 136.6 | 850 | 146 |  |  |
| O=C(Nc1ccccc1)[C@@H]1CC=C[C@@H]2CCN(Cc3ccc(Cl)c(Cl)c3)C(=O)[C@@H]21 (racemic) [compound 8941] |  | 2700 |  | 79 | 1110 | 259 |  |  |
| COc1ccc(CN2CC[C@H]3C=CC[C@@H](C(=O)Nc4ccccc4)[C@H]3C2=O)cc1OC (racemic) [compound 8942] |  | 3520 |  | 5.4 | 4610 | 3060 |  |  |
| COc1ccc(NC(=O)[C@@H]2CC=C[C@@H]3CCN(Cc4ccc(Cl)c(Cl)c4)C(=O)[C@@H]32)cc1 (racemic) [compound 8947] |  | 3490 |  | 17.3 |  | 2560 |  |  |
| COc1ccc(CN2CC[C@H]3C=CC[C@@H](C(=O)Nc4ccc(Cl)cc4Cl)[C@H]3C2=O)cc1OC (racemic) [compound 8952] |  | 5660 |  | −2.6 |  |  |  |  |
| CCCCN1CC[C@H]2C=CC[C@@H](C(=O)Nc3ccc(Cl)c(C(F)(F)F)c3)[C@H]2C1=O (racemic) [compound 8956] |  | 2220 |  | 118.7 |  | 190 |  |  |
| O=C(Nc1cc(C(F)(F)F)ccc1Cl)C1CC=CC2CCN(CCc3ccccc3)C(=O)C21 (racemic) [compound 11849] |  | 2410 |  |  |  | 1820 |  |  |
| O=C(NCc1ccc(Cl)c(C(F)(F)F)c1)[C@@H]1CC=C[C@@H]2CCN(Cc3ccccc3)C(=O)[C@@H]21 (racemic) [compound 11868] |  | 2160 |  |  |  | 455 |  |  |
| Cc1cc(NC(=O)[C@@H]2CC=C[C@@H]3CCN(Cc4ccccc4)C(=O)[C@@H]32)ccc1Cl (racemic) [compound 11872] |  | 2180 |  |  |  | 86 | 123 |  |
| O=C(NCc1ccc(Cl)c(C(F)(F)F)c1)[C@@H]1CC=C[C@@H]2CCN(CCc3ccccc3)C(=O)[C@@H]21 (racemic) [compound 11874] |  | 1240 |  |  |  | 319 |  |  |
| O=C(Nc1ccc(Br)c(C(F)(F)F)c1)[C@@H]1CC=C[C@@H]2CCN(CCc3ccccc3)C(=O)[C@@H]21 (racemic) [compound 11875] |  | 1180 |  |  |  | 2280 |  |  |
| Cc1cc(NC(=O)[C@@H]2CC=C[C@@H]3CCN(CCc4ccccc4)C(=O)[C@@H]32)ccc1Cl (racemic) [compound 11878] |  | 1670 |  |  |  | 4120 |  |  |
| O=C(Nc1ccc(Br)c(C(F)(F)F)c1)[C@H]1CC=C[C@H]2CCN(Cc3ccccc3)C(=O)[C@@H]12 [11869*] | 68 | 648 |  |  |  | 16.5 |  |  |
| O=C(Nc1ccc(Cl)c(C(F)(F)F)c1)[C@@H]1CC=C[C@@H]2CCN(Cc3ccccc3)C(=O)[C@@H]21 [compound 11789] |  |  | 132 |  |  |  |  | 3480 |
| O=C(Nc1ccc(Cl)c(C(F)(F)F)c1)[C@H]1CC=C[C@H]2CCN(Cc3ccccc3)C(=O)[C@@H]12 [compound 11790] | 78 |  | 3.2 |  |  |  |  | 208 |
| O=C(Nc1ccccc1)[C@H]1CC=C[C@H]2CCN(Cc3ccccc3)C(=O)[C@@H]12 [compound 11794] |  | 1660 |  |  |  | 137 |  |  |
| O=C(Nc1ccc(Cl)c(C(F)(F)F)c1)[C@@H]1CC=C[C@H]2CCN(Cc3ccccc3)C(=O)[C@H]21 [compound 11795] |  | 5420 | 158 |  |  |  |  |  |
